This is an account of results in article PMC12108418, “Broad-Spectrum Gramicidin S Derivatives with Potent Activity Against Multidrug-Resistant Gram-Negative ESKAPE Pathogens” (Antibiotics, 2025).

Molecules are shown by their SMILES. Values after ≈ are worked out from the molar mass of the structure shown. Where two headings read alike, the source gives them in different places. Square brackets hold non-standard residues; d marks the D form. Peptide text beside a SMILES is read from it. Tle = CC(C)(C)[C@H](N)C(=O)O; Orn = NCCC[C@H](N)C(=O)O; Abu = CC[C@H](N)C(=O)O

Data set [1] has as its system Pseudomonas aeruginosa (ATCC 27853). Type of data set: cell-based. Here is the method: (§1) The antibacterial efficacy of peptides was assessed using the broth microdilution method in accordance with Clinical and Laboratory Standards Institute (CLSI) guidelines (M07-A10, 2015 [33]). The minimum inhibitory concentrations (MICs) were determined against Escherichia coli (ATCC 25922), Klebsiella pneumoniae (ATCC 33495), Pseudomonas aeruginosa (ATCC 27853), Acinetobacter baumannii (ATCC 19606), and Staphylococcus aureus (ATCC 29213 and ATCC USA300). Bacterial suspensions were standardised to 5 × 10^4 colony-forming units (CFUs)/well in cation-adjusted Mueller–Hinton broth (CAMHB). Peptides were dissolved in 25% DMSO and serially diluted two-fold across 96-well plates, reaching final concentrations ranging from 256 to 0.125 µg/mL. The wells were inoculated, ensuring a final volume of 100 µL per well, with a DMSO concentration of 1% (v/v) to minimise solvent interference. […] Vancomycin was used as the positive control for S. aureus. Polymyxin B served as the positive control for Gram-negative bacteria. CAMHB with 1% (v/v) DMSO (without peptides) was used as the negative control. All experiments were performed in triplicate (n = 3). Bacterial isolates were stored in tryptone soy broth with 30% glycerol at −80 °C for long-term preservation.

For data set [2], the system named is Klebsiella pneumoniae (ATCC 33495). It is filed as cell-based. Here is the method: as §1
Data set [3] relates to Acinetobacter baumannii (ATCC 19606). Type of data set: cell-based. As for the experimental part: as §1
The subject of data set [4] is Escherichia coli (ATCC 25922). Type of data set: cell-based. Here is the method: as §1
Data set [5] can be described thus: Analytical RP-HPLC retention time as measure of hydrophobicity. It is filed as physicochemical. The note with it: measure of global hydrophobicity, Phenomenex Kinetex 2.6 µm C18 (150 × 4.6 mm), 0.7 mL/min, ACN/TFA (100:0.0008) and water/TFA (100:0.001). Here is the method: Peptide purification was carried out via preparative RP-HPLC on an Agilent 1260 Infinity II system (Santa Clara, CA, USA) equipped with a 21.2 × 150 mm Agilent ZORBAX Eclipse Plus C18 column, operating at a flow rate of 25 mL/min. The mobile phase consisted of acetonitrile containing 0.0008% trifluoroacetic acid (v/v) as the organic phase and water with 0.001% TFA as the aqueous phase. […] Analytical HPLC analysis was performed on a Hewlett-Packard Series 1100 instrument using a Phenomenex (Torrance, CA, USA) Kinetex C18 column (150 mm × 4.6 mm, 2.6 µm particle size), under identical solvent conditions, to confirm purity.
HRMS of peptide 1. […] HRMS of peptide 2. […] HRMS of peptide 3. […] HRMS of peptide 4. […] HRMS of peptide 5. […] HRMS of peptide 6. […] HRMS of peptide 7. […] HRMS of peptide 8. […] HRMS of peptide 9. […] HRMS of peptide 10. […] HRMS of peptide 11. […] HRMS of peptide 12. […] HRMS of peptide 13. […] HRMS of peptide 14. […] HRMS of peptide 15. […] HRMS of peptide 16. […] HRMS of peptide 17. […] HRMS of peptide 18. […] HRMS of peptide 19.

In the next data set the test system is human red blood cells. Briefly: Haemolysis assay. Type of data set: cell-based. The settings on record: 1% human RBC suspension in HEPES-buffered saline pH 7.4, pooled from three donors, 0.125 to 256 μg/mL, 1 h, 37 °C, absorbance 540 and 410 nm, triplicate (n = 3). Here is the method:
To evaluate haemolytic activity, fresh human blood was collected from three unrelated healthy volunteers to ensure donor variability. Red blood cells (RBCs) were separated by centrifugation at 3000 rpm for 5 min at 4 °C, followed by washing in HEPES-buffered saline (HBS; 150 mM NaCl, 5 mM HEPES-NaOH, pH 7.4). The samples were pooled, mixed, and all experiments were performed in triplicate to enhance reproducibility. Blood samples were used within 48 h of collection to preserve erythrocyte integrity. A 1% RBC suspension in HBS (200 μL) was distributed into 96-well plates, and peptide solutions (100 μL) were added to reach final concentrations ranging from 0.125 to 256 μg/mL. After a 1 h incubation at 37 °C, the plates were centrifuged (3000 rpm, 5 min, 4 °C), and 80 μL of each supernatant was transferred to a fresh microplate. Absorbance readings were taken at 540 nm and 410 nm to assess protein content and haemoglobin release, respectively. HBS served as a negative control and 1% Triton X-100 as a positive control (n = 3).

The mark [6] stands for this setting: broth microdilution in CAMHB, 5 × 10^4 CFU/well, 1% DMSO, 37 °C, 16–20 h, 256 to 0.125 µg/mL, triplicate (n = 3).

As to `CC[C@@H]1NC(=O)[C@@H]2CCCN2C(=O)[C@@H](CCCNC(=N)N)NC(=O)[C@H](CC(C)C)NC(=O)[C@H](CCCN)NC(=O)[C@H](C(C)C)NC(=O)[C@@H]2CCCN2C(=O)[C@@H](Cc2ccccc2)NC(=O)[C@H](CC(C)C)NC(=O)[C@H](CCCNC(=N)N)NC1=O` [Peptide 17] (cyclo([Abu]RL[dF]PV[Orn]L[dR]P)), in data set [1] (setting [6]), the “MIC P. aeruginosa ATCC 27853” value stood at 64 µg/mL (≈ 54.3 µM). For the same compound, the “MIC K. pneumonia ATCC 33495” value in data set [2] (ATCC 33495) was 32 µg/mL (≈ 27.2 µM). The “MIC A. baumannii ATCC 19606” value in data set [3] (ATCC 19606) worked out at 16 µg/mL (≈ 13.6 µM). Also, the “MIC E. coli ATCC 25922” value in data set [4] (ATCC 25922) stood at 32 µg/mL (≈ 27.2 µM). Also, in data set [5], the “RP-HPLC retention time tR” value turned out to be 16.32 min.

On to `CC(C)C[C@@H]1NC(=O)[C@H](CCCN)NC(=O)[C@H](C(C)(C)C)NC(=O)[C@@H]2CCCN2C(=O)[C@@H](Cc2ccccc2)NC(=O)[C@H](CC(C)C)NC(=O)[C@H](CCCN)NC(=O)[C@H](C(C)(C)C)NC(=O)[C@@H]2CCCN2C(=O)[C@@H](Cc2ccccc2)NC1=O` [Peptide 13] (cyclo(L[dF]P[Tle][Orn]L[dF]P[Tle][Orn])), for which the “HC50 (50% haemolytic concentration)” value in the data set with human red blood cells is reported as 6.26 ± 0.35 µg/mL. Moreover, the “MIC P. aeruginosa ATCC 27853” value in data set [1] (setting [6]) amounted to 128 µg/mL (≈ 109 µM). In addition, in data set [2] (setting [6]), the “MIC K. pneumonia ATCC 33495” value is 256 µg/mL (≈ 219 µM). In data set [3] (setting [6]), the “MIC A. baumannii ATCC 19606” value was determined as 32 µg/mL (≈ 27.4 µM). For the same compound, the “MIC E. coli ATCC 25922” value in data set [4] (setting [6]) is 32 µg/mL (≈ 27.4 µM).

For the compound `CC(C)(C)[C@@H]1NC(=O)[C@H](CCCN)NC(=O)[C@H](C(C)(C)C)NC(=O)[C@@H]2CCCN2C(=O)[C@@H](Cc2ccccc2)NC(=O)[C@H](C(C)(C)C)NC(=O)[C@H](CCCN)NC(=O)[C@H](C(C)(C)C)NC(=O)[C@@H]2CCCN2C(=O)[C@@H](CCCNC(=N)N)NC1=O` [Peptide 7] (cyclo([Orn][Tle][dF]P[Tle][Orn][Tle][dR]P[Tle])), the “MIC P. aeruginosa ATCC 27853” value in data set [1] (ATCC 27853) was 32 µg/mL (≈ 27.2 µM). Besides, the “MIC K. pneumonia ATCC 33495” value in data set [2] (ATCC 33495) amounted to 32 µg/mL (≈ 27.2 µM). In addition, the “MIC A. baumannii ATCC 19606” value in data set [3] (ATCC 19606) is 4 µg/mL (≈ 3.39 µM). For the same compound, the “MIC E. coli ATCC 25922” value in data set [4] (ATCC 25922) turned out to be 16 µg/mL (≈ 13.6 µM). Also, in data set [5], the “RP-HPLC retention time tR” value turned out to be 16.92 min.

As to `CC[C@@H]1NC(=O)[C@@H]2CCCN2C(=O)[C@@H](Cc2ccccc2)NC(=O)[C@H](CC(C)C)NC(=O)[C@H](CCCNC(=N)N)NC(=O)[C@H](C(C)C)NC(=O)[C@@H]2CCCN2C(=O)[C@@H](CCCNC(=N)N)NC(=O)[C@H](CC(C)C)NC(=O)[C@H](CCCN)NC1=O` [Peptide 16] (cyclo([Abu][Orn]L[dR]PVRL[dF]P)), in data set [1] (setting [6]), the “MIC P. aeruginosa ATCC 27853” value stood at 64 µg/mL (≈ 54.3 µM). The “MIC K. pneumonia ATCC 33495” value in data set [2] (ATCC 33495) was found to be 32 µg/mL (≈ 27.2 µM). The “MIC A. baumannii ATCC 19606” value in data set [3] (ATCC 19606) came to 16 µg/mL (≈ 13.6 µM). Further, the “MIC E. coli ATCC 25922” value in data set [4] (ATCC 25922) is 32 µg/mL (≈ 27.2 µM). The “RP-HPLC retention time tR” value in data set [5] turned out to be 16.24 min.

As to `CC(C)(C)[C@@H]1NC(=O)[C@H](CCCN)NC(=O)[C@H](C(C)(C)C)NC(=O)[C@@H]2CCCN2C(=O)[C@@H](Cc2ccccc2)NC(=O)[C@H](C(C)(C)C)NC(=O)[C@H](CCCN)NC(=O)[C@H](C(C)(C)C)NC(=O)[C@@H]2CCCN2C(=O)[C@@H](Cc2ccccc2)NC1=O` [Peptide 1] (cyclo([Orn][Tle][dF]P[Tle][Orn][Tle][dF]P[Tle])), in data set [1] (ATCC 27853), the “MIC P. aeruginosa ATCC 27853” value turned out to be 64 µg/mL (≈ 54.7 µM). For the same compound, in data set [2] (ATCC 33495), the “MIC K. pneumonia ATCC 33495” value is listed as 128 µg/mL (≈ 109 µM). The “MIC A. baumannii ATCC 19606” value in data set [3] (ATCC 19606) is 4 µg/mL (≈ 3.42 µM). In addition, the “MIC E. coli ATCC 25922” value in data set [4] (ATCC 25922) is reported as 32 µg/mL (≈ 27.4 µM). Also, the “RP-HPLC retention time tR” value in data set [5] stood at 19.90 min.

For `CC(C)C[C@@H]1NC(=O)[C@H](CCCN)NC(=O)[C@H](C(C)C)NC(=O)[C@@H]2CCCN2C(=O)[C@@H](Cc2ccccc2)NC(=O)[C@H](CC(C)C)NC(=O)[C@H](CCCNC(=N)N)NC(=O)[C@H](C(C)C)NC(=O)[C@@H]2CCCN2C(=O)[C@@H](CCCNC(=N)N)NC1=O` [Peptide 15] (cyclo(L[dF]PV[Orn]L[dR]PVR)), the “MIC P. aeruginosa ATCC 27853” value in data set [1] (setting [6]) was determined as 32 µg/mL (≈ 26.8 µM). Besides, the “MIC K. pneumonia ATCC 33495” value in data set [2] (ATCC 33495) was determined as 16 µg/mL (≈ 13.4 µM). The “MIC A. baumannii ATCC 19606” value in data set [3] (ATCC 19606) worked out at 8 µg/mL (≈ 6.71 µM). In addition, the “MIC E. coli ATCC 25922” value in data set [4] (ATCC 25922) is listed as 16 µg/mL (≈ 13.4 µM). For the same compound, the “RP-HPLC retention time tR” value in data set [5] was found to be 16.47 min.
